The data set relates to skin of human subjects. Description: Human Repeat Insult Patch Testing (HRIPT). The data set is classed as in vivo. The conditions noted are these: positive control, 71 subjects. On the procedure:
The study duration was 6 weeks and 71 male and female subjects, ranging in age from 18 to 65, completed the study. Subjects were requested to bathe or wash as usual before arrival at the facility Patches containing the test material were then affixed directly to the skin of the intrascapular regions of the back, to the right or left of the midline and subjects were dismissed with instructions not to wet or expose the test area to direct sunlight. Patches remained in place for 48 hours after the first application. Subjects were instructed not to remove the patches prior to their 48-hour scheduled visit, thereafter, subjects were instructed to remove patches 24 hours after application for the remainder of the study. […] Prior to each reapplication, the test sites were evaluated by trained laboratory personnel. Following a 10-14 day rest period a retest/challenge dose was applied once to a previously unexposed test site. Test sites were evaluated by trained laboratory personnel 48 and 96 hours after application. In the event of a reaction, the area of erythema and edema were measured. Edema is estimated by the evaluation of the skin with respect to the contour of the unaffected normal skin. Subjects were instructed to report any delayed reactions that might occur after the final reading.

The text below walks through data of patent US20240366487A1, “ANTI-AGING COMPOSITIONS FOR SENSITIVE SKIN” (Baek Clinical Inc., priority 2023, published 2024).

Each structure is given as a SMILES string.

Consider `CCCCCCCCCCCCOS(=O)(=O)[O-].[Na+]` [1.0% Sodium Lauryl Sulfate Solution, Sodium Lauryl Sulfate], for which the “subjects with a Grade 1 reaction” value is listed as 3 subjects and the “subjects with a Grade 2 reaction” value amounted to 1 subject.
